This note sets out measurements from patent publication US20120004166A1, “ARYLOXYALKYLENE-SUBSTITUTED HYDROXYPHENYLHEXYNOIC ACIDS, PROCESS FOR PREPARATION THEREOF AND USE THEREOF AS A MEDICAMENT” (SANOFI, priority 2010, published 2012).

SMILES strings stand for the structures.

The target in the assay is T1, GPCR GPR40 (Rattus norvegicus, UniProt Q8K3T4).
T1 construct: expressed in transfected cells; host or cells: HEK293
The assay can be described thus: In vitro FLIPR assay with recombinant cells which express the GPCR GPR40. To be noted: recombinant HEK293 cells expressing rat GPR40; agonist-induced change in intracellular Ca2+ (Fluo-4, FLIPR); 100% = 10 μM linoleic acid. It counts as cell-based. As to the method:
In Vitro FLIPR Assay with Recombinant Cells which Express the GPCR GPR40
Function-testing assays were performed by means of the FLIPR technique (“Fluorescence Imaging Plate Reader”, Molecular Devices Corp.). To this end, agonist-induced changes in the intracellular concentration of Ca^2+ were determined in recombinant HEK293 cells which expressed the GPCR GPR40 (species: rat). For the studies, cells were sown into 96-well microtiter plates (60 000 cells/well) and left to grow overnight. The medium was removed and the cells were incubated in buffer which contained the fluorescent dye Fluo-4. After this loading with dye, the cells were washed, test substance was added and changes in the intracellular Ca^2+ concentration were measured in the FLIPR unit. Results were presented as the percentage change relative to the control (0%: no test substance added; 100%: 10 μM reference agonist linoleic acid added) and used to calculate dose/effect curves, and EC50 values were determined.

T1 sequence (Q8K3T4 whole entry): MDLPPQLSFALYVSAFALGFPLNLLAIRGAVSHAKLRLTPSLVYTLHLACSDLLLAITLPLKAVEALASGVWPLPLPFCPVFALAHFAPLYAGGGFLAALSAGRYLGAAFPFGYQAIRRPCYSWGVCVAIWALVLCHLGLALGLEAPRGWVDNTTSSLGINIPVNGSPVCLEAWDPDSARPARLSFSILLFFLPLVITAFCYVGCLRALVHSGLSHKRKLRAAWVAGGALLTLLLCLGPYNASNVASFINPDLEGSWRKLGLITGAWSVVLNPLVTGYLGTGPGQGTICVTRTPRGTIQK

In the case of `CC#CC(CC(=O)O)c1ccc(OCC(COCC2CC2)COc2ccc(C#N)c(Cl)c2)cc1` (stereo not shown) [Example 51, 3-{4-[3-(3-Chloro-4-cyanophenoxy)-2-cyclopropylmethoxymethylpropoxy]phenyl}hex-4-ynoic acid], the EC50 (in general, the midpoint of the concentration-response curve) was determined as 2400 nM.
Take `CC#CC(CC(=O)O)c1ccc(OCC(COc2ccc(C(F)(F)F)cc2Cl)OCc2ccccc2)cc1` (stereo not shown) [Example 48, 3-{4-[2-Benzyloxy-3-(2-chloro-4-trifluoromethylphenoxy)propoxy]phenyl}hex-4-ynoic acid]: the EC50 came to 7500 nM.
`CC#CC(CC(=O)O)c1ccc(OCCOc2ccccc2OC)cc1` (stereo not shown) [Example 21, 3-{4-[2-(2-Methoxyphenoxy)ethoxy]phenyl}hex-4-ynoic acid]: the EC50 was determined as 800 nM.
The value for `CC#CC(CC(=O)O)c1ccc(OCC(C)COc2cc(C(C)C)ccc2C)cc1` (stereo not shown) [Example 39, 3-{4-[3-(5-Isopropyl-2-methylphenoxy)-2-methylpropoxy]phenyl}hex-4-ynoic acid] was 3200 nM.
For the compound `CC#CC(CC(=O)O)c1ccc(OCC(CCC)COc2cccc(C(C)(C)C)c2)cc1` (stereo not shown) [Example 45, 3-{4-[2-(3-tert-Butylphenoxymethyl)pentyloxy]phenyl}hex-4-ynoic acid], the EC50 is 6850 nM.
In the case of `CC#CC(CC(=O)O)c1ccc(OCC(C)COc2cccc(C(C)(C)C)c2)cc1` (stereo not shown) [Example 35, 3-{4-[3-(3-tert-Butylphenoxy)-2-methylpropoxy]phenyl}hex-4-ynoic acid], the EC50 is 1090 nM.
The value for `CC#CC(CC(=O)O)c1ccc(OCCOc2ccc(C(C)(C)C)cc2)cc1` (stereo not shown) [Example 16, 3-{4-[2-(4-tert-Butylphenoxy)ethoxy]phenyl}hex-4-ynoic acid] was 610 nM; that for `CC#CC(CC(=O)O)c1ccc(OCC[C@@H](C)Oc2cccc(C)c2)cc1` (stereo partly drawn) [Example 27, 3-[4-((R)-3-m-Tolyloxybutoxy)phenyl]hex-4-ynoic acid] was 50 nM.
The value for `CC#CC(CC(=O)O)c1ccc(OCCCOc2ccc(C(F)(F)F)nc2)cc1` (stereo not shown) [Example 8, 3-{4-[3-(6-Trifluoromethylpyridin-3-yloxy)propoxy]phenyl}hex-4-ynoic acid] was 350 nM.
With `CC#CC(CC(=O)O)c1ccc(OCCOc2ccccc2Cl)cc1` (stereo not shown) [Example 19, 3-{4-[2-(2-Chlorophenoxy)ethoxy]phenyl}hex-4-ynoic acid], the EC50 came to 180 nM.
The value for `CC#CC(CC(=O)O)c1ccc(OCCOc2ccccc2C(F)(F)F)cc1` (stereo not shown) [Example 22, 3-{4-[2-(2-Trifluoromethylphenoxy)ethoxy]phenyl}hex-4-ynoic acid] was 50 nM; that for `CC#CC(CC(=O)O)c1ccc(OCC(COc2ccc(C(F)(F)F)cc2Cl)OC)cc1` (stereo not shown) [Example 53, 3-{4-[3-(2-chloro-4-trifluoromethylphenoxy)-2-methoxypropoxy]phenyl}hex-4-ynoic acid] was 200 nM.
Regarding `CC#CC(CC(=O)O)c1ccc(OCC(C)COc2cc(C)ccc2C(C)C)cc1` (stereo not shown) [Example 36, 3-{4-[3-(2-Isopropyl-5-methylphenoxy)-2-methylpropoxy]phenyl}hex-4-ynoic acid], the EC50 was 1590 nM.
For the compound `CC#CC(CC(=O)O)c1ccc(OCC(C)COc2ccccc2C(F)(F)F)cc1` (stereo not shown) [Example 38, 3-{4-[2-methyl-3-(2-trifluoromethylphenoxy)propoxy]phenyl}hex-4-ynoic acid], the EC50 was 730 nM.
`CC#CC(CC(=O)O)c1ccc(OCCOc2ccccc2)cc1` (stereo not shown) [Example 17, 3-{4-[2-Phenoxyethoxy]phenyl}hex-4-ynoic acid]: the EC50 is 360 nM.
The value for `CC#CC(CC(=O)O)c1ccc(OCCOc2cccc(Cl)c2)cc1` (stereo not shown) [Example 13] was 40 nM.
The result for `CC#CC(CC(=O)O)c1ccc(OCC[C@@H](C)Oc2ccc(C(F)(F)F)cc2Cl)cc1` (stereo partly drawn) [Example 31, 3-{4-[(R)-3-(2-Chloro-4-trifluoromethylphenoxy)butoxy]phenyl}hex-4-ynoic acid] reads 640 nM.
The value for `CC#CC(CC(=O)O)c1ccc(OCCCOc2cccc(C(C)(C)C)c2)cc1` (stereo not shown) [Example 1, 3-{4-[3-(3-tert-Butylphenoxy)propoxy]phenyl}hex-4-ynoic acid] was 440 nM; that for `CC#CC(CC(=O)O)c1ccc(OCCC(C)Oc2cccc(C)c2)cc1` (stereo not shown) [Example 26, 3-[4-(3-m-Tolyloxybutoxy)phenyl]-hex-4-ynoic acid] was 50 nM; that for `CC#CC(CC(=O)O)c1ccc(OCC(O)COc2ccc(C(F)(F)F)cc2Cl)cc1` (stereo not shown) [Example 52, 3-{4-[3-(2-Chloro-4-trifluoromethylphenoxy)-2-hydroxypropoxy]phenyl}hex-4-ynoic acid] was 990 nM.
As to `CC#CC(CC(=O)O)c1ccc(OCC[C@H](C)Oc2cccc(C)c2)cc1` (stereo partly drawn) [Example 28, 3-[4-((S)-3-m-Tolyloxybutoxy)phenyl]hex-4-ynoic acid], the EC50 is 50 nM.
The result for `CC#CC(CC(=O)O)c1ccc(OCC[C@H](C)Oc2ccccc2C(F)(F)F)cc1` (stereo partly drawn) [Example 30, 3-{4-[(S)-3-(2-Trifluoromethylphenoxy)butoxy]phenyl}hex-4-ynoic acid] reads 140 nM.
